Results as given in article PMC7948405, “Small-molecule control of neurotransmitter sulfonation” (The Journal of Biological Chemistry, 2020).

What was measured:
SULT1A3 [1] = target: T1, SULT1A3 (Homo sapiens, UniProt P0DMM9); set-up: method as in PMID 30545938; details: saturating inhibitor, cited from earlier work
T1 construct: E. coli–optimized SULT coding regions were inserted into a pGEX-6P expression vector; N-His/GST/MBP triple tag (PreScission-cleavable) (N, cleaved yes); made in house; host or cells: E. coli BL21(DE3)
T1 sequence (P0DMM9 whole entry): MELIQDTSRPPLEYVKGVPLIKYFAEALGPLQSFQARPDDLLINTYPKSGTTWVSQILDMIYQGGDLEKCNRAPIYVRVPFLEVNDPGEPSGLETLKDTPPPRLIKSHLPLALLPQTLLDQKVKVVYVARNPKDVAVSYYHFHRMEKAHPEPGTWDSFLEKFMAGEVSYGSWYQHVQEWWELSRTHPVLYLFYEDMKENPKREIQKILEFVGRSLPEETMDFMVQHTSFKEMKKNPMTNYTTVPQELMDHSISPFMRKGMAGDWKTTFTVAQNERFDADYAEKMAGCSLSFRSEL

SULT1A3 [2] = target: T1, SULT1A3; assay: Pre-steady-state (stopped-flow fluorescence) binding of PAP to SULT1A3 complexes; details: for Kd: read-out: Kd (koff/kon)
Source text: Figure 4 The inhibition mechanism. A, equilibrium binding. Binding was monitored via ligand-induced changes in SULT1A3 intrinsic fluorescence (λex = 290 nm, λem = 335 nm). […] Each dot represents the average of three independent titrations. Lines passing through the data represent the outcomes predicted by least-squares fitting of the averaged data to a single-binding-site model. B, representative PAP-binding reaction. PAP binding was monitored using a stopped-flow fluorimeter (λex = 290 nm, λem ≥ 330 nm (cutoff filter)). Reactions were initiated by rapidly mixing (1:1 v/v) a solution containing SULT1A3 (30 nM, dimer), CMP13 (1.0 μM, 100 × Kd), Tam (160 μM, 200 × Kd), KPO4 (50 mM), pH 7.5, 25(±2) °C, with a solution that was identical except that it lacked SULT1A3 and contained PAP (2.0 μM). The average of five independent progress curves shown and the kobs was obtained by fitting the data to a single exponential. C, pre–steady-state binding. PAP binding was monitored as described for panel B. Reactions were initiated by mixing (1:1 v/v) a solution containing SULT1A3 (30 nM, dimer), CMP13 [0 μM (black dots) or 1.0 μM, 100 × Kd (red and blue dots)], Tam [0 μM (black and blue dots) or 160 μM, 200 × Kd (red dots)], KPO4 (50 mM), pH 7.5, 25(±2) °C, with a solution that was identical except that it lacked SULT1A3 and contained PAP at twice the indicated concentrations. Each kobs value was determined in triplicate, and the averaged values are shown. kon and koff are given, respectively, by the slopes and intercepts obtained from linear least-squares fitting of the kobs vs [PAP] plot. PAP, 3′-phosphoadenosine-5′-phosphate; SULT1A3, sulfotransferase 1A3; Tam, 4-hydroxy-tamoxifen.
To resolve this uncertainty, PAP on- and off-rate constants for a series of open and closed complexes were determined using stopped-flow fluorescence. A representative binding reaction can be seen in Fig. 4B. The binding reactions were pseudo-first order in [PAP], and kobs values were obtained by fitting reaction progress curves to a single-exponential equation. On- and off-rate constants (see Table 3) are given by the plot slopes and intercepts.
Pre–steady-state binding of PAP to SULT1A3 was monitored via ligand-induced changes in SULT1A3 fluorescence using an Applied Photophysics SX20 stopped-flow spectrofluorometer. Fluorescence was measured at λex = 290 nm and λem ≥ 330 nm (using a cutoff filter). […] All reactions were pseudo first order with respect to [PAP]. kobs values, determined in triplicate at each PAP concentration, were obtained by least-squares fitting the average of five progress curves to a single-exponential equation. kon and koff, obtained by linear least-squares fitting, are given by the slopes and intercepts of four-point kobs-vs-[PAP] plots.

SULT1A3 [3] = target: T1, SULT1A3; assay: Equilibrium binding of PAP to SULT1A3 complexes (intrinsic fluorescence)
Method: CMP13 binding to SULT1A3 was monitored via binding-induced changes in SULT1A3 intrinsic fluorescence (λex= 290 nm, λem= 335 nm ([17])). […] PAP binding was determined using the same protocol except that [PAP] was varied and CMP13 was 1.0 μM (100 × Ki). Titrations were performed in triplicate. Data were averaged and least-squares fit using a model that assumes a single binding site per monomer.

[4] = PAP binding to complex E·CMP13, CMP13 1.0 μM
[5] = PAP binding to complex E·CMP13·Tam, CMP13 1.0 μM, Tam 160 μM
[6] = PAP binding to complex E·CMP13·Tam

SMILES | % Inhibition at saturation (SULT1A3 [1]; in vitro) | factor by which SULT1A3 turnover is reduced at saturation (SULT1A3 [1]) | turnover at saturation as % of that seen in absence of inhibitor (SULT1A3 [1]) [%] | koff (SULT1A3 [2]; PAP binding to complex E) [s⁻¹] | kon (SULT1A3 [2]; PAP binding to complex E) [M⁻¹ s⁻¹] | Kd (SULT1A3 [2]; PAP binding to complex E) [nM] | koff (SULT1A3 [2]; [4]) [s⁻¹] | kon (SULT1A3 [2]; [4]) [M⁻¹ s⁻¹] | Kd (SULT1A3 [2]; PAP binding to complex E·CMP13) [nM] | koff (SULT1A3 [2]; [5]) [s⁻¹] | kon (SULT1A3 [2]; [5]) [M⁻¹ s⁻¹] | Kd (SULT1A3 [2]; [6]) [nM] | Kd (SULT1A3 [3]; PAP binding to complex E) [nM] | Kd (SULT1A3 [3]; [4]) [nM] | Kd (SULT1A3 [3]; [6]) [nM]
CC(C)Cc1ccc2cc(CO)ccc2n1 [CMP8] | 54 (3) % | 2 | 46 |  |  |  |  |  |  |  |  |  |  |  | 
Nc1ncnc2c1ncn2[C@@H]1O[C@H](COP(=O)(O)O)[C@@H](OP(=O)(O)O)[C@H]1O [PAP, 3′-phosphoadenosine-5′-phosphate] |  |  |  | 2.5 | 6.9e+06 | 360 | 0.18 | 6.6e+06 | 29 | 2.3 | 6.5e+06 | 350 | 320 | 31 | 350
